The source of these data is ChEMBL document CHEMBL1667824 (Bioorg Med Chem, 2011).

The structures appear in SMILES notation.

Assay [1] concerns the target T1, Lactoylglutathione lyase (Homo sapiens, UniProt Q04760). The assay is described as follows: Inhibition of glyoxalase 1.
The target of assay [2] is T1, Lactoylglutathione lyase. The assay is described as follows: Inhibition of human recombinant His-tagged glyoxalase 1 expressed in Escherichia coli BL21 (DE3) preincubated for 20 mins by Dixon plot analysis.

T1 sequence (Q04760 whole entry): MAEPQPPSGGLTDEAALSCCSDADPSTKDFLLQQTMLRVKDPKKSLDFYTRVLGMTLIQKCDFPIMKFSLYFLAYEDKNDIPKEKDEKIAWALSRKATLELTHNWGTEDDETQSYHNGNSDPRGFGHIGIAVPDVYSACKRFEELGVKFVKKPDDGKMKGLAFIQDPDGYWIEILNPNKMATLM

Consider `CC1=C(CC(=O)O)c2cc(F)ccc2/C1=C\c1ccc([S+](C)[O-])cc1` (configuration not stated), for which the inhibition constant Ki at Lactoylglutathione lyase [1] was determined as 77.9 µM; at Lactoylglutathione lyase [2], 139 µM.
With `COC(=O)/C=C/c1ccc(F)cc1`, at Lactoylglutathione lyase [2], the inhibition constant Ki stood at 1910 µM.
Still for that read-out and setting: the figure for `O=C(/C=C(O)/C=C/c1ccc(F)cc1)/C=C/c1ccc(F)cc1` is 4.6 µM.
The same measure, in the same setting: the figure for `COc1ccc(/C=C/C(=O)/C=C(O)/C=C/c2ccc(O)cc2)cc1OC` is 29 µM.
For `COc1cc(/C=C/C(=O)C(=Cc2ccc(OC)c(OC)c2)C(=O)/C=C/c2ccc(O)c(OC)c2)ccc1O`, on Lactoylglutathione lyase [2], the inhibitory constant (Ki) came out at 4.6 µM.
For `COc1cc(/C=C/C(=O)C(=Cc2cccc(F)c2)C(=O)/C=C/c2ccc(O)c(OC)c2)ccc1O`, on Lactoylglutathione lyase [2], the inhibitory constant (Ki) was 2.6 µM.
Turning to `COc1cc(/C=C/C(=O)C(=Cc2ccc(F)cc2)C(=O)/C=C/c2ccc(O)c(OC)c2)ccc1O`, the Ki on Lactoylglutathione lyase [2] came to 3.2 µM.
`COc1ccc(/C=C/C(=O)C(=Cc2ccc(C=O)c(C=O)c2)C(=O)/C=C/c2ccc(OC)c(OC)c2)cc1OC`: the Ki at Lactoylglutathione lyase [2] was 3.6 µM.
For the compound `COc1ccc(/C=C/C(=O)C(=CO)C(=O)/C=C/c2ccc(OC)cc2)cc1`, the Ki at Lactoylglutathione lyase [2] was 109 µM.
Still for that read-out and setting: the figure for `COc1ccc(C=C(C(C)=O)C(C)=O)cc1` is 383 µM; for `CC(=O)C(=Cc1cccc([N+](=O)[O-])c1)C(C)=O` it is 91 µM; for `CC(=O)C(=Cc1ccc([N+](=O)[O-])o1)C(C)=O` it is 27 µM.
As to `O=C(O)C(=Cc1cccc([N+](=O)[O-])c1)C(=O)O`, the Ki on Lactoylglutathione lyase [2] came out at 426 µM.
In the case of `CCOC(=O)/C(=C\c1ccc([N+](=O)[O-])cc1)C(C)=O`, the inhibition constant Ki on Lactoylglutathione lyase [2] came out at 159 µM.
As to `CCOC(=O)/C(=C\c1cccc([N+](=O)[O-])c1)C(C)=O`, the Ki on Lactoylglutathione lyase [2] amounted to 65 µM.
Consider `CCOC(=O)/C(=C\C=C(\C(C)=O)C(=O)OCC)C(C)=O`, for which, at Lactoylglutathione lyase [2], the Ki was 39 µM.
The same measure, in the same setting: the figure for `NC(=O)/C=C/c1ccc(F)cc1` is 1390 µM.
Turning to `COc1cc(/C=C/C(O)=C/C(=O)/C=C/c2ccc[nH]2)ccc1O`, the inhibition constant Ki at Lactoylglutathione lyase [2] came out at 18 µM.
For `COc1cc(/C=C/C(O)=C/C(C)=O)ccc1O`, on Lactoylglutathione lyase [2], the Ki was found to be 90 µM.
Still for that read-out and setting: the figure for `COc1cc(C=C(C(=O)/C=C/c2ccc(O)c(OC)c2)C(=O)/C=C/c2ccc(O)c(OC)c2)ccc1O` is 3.6 µM; for `O=C(/C=C(O)/C=C/c1ccco1)/C=C/c1ccco1` it is 1500 µM; for `COc1ccc(/C=C/C(=O)/C=C(O)/C=C/c2ccc(CO)o2)cc1` it is 74 µM.
On to `COc1ccc2c(c1)c(CC(=O)OCC(=O)O)c(C)n2C(=O)c1ccc(Cl)cc1` [ACEMETACIN], for which the inhibition constant (Ki) at Lactoylglutathione lyase [1] stood at 12.9 µM; on Lactoylglutathione lyase [2] it was 49 µM.
Regarding `O=C(/C=C/c1ccc(O)cc1)CC(=O)/C=C/c1ccc(O)cc1` [BISDEMETHOXYCURCUMIN], at Lactoylglutathione lyase [2], the Ki turned out to be 18 µM.
Turning to `CCOC(=O)/C=C/c1ccc(O)c(OC)c1` [ETHYL FERULATE], on Lactoylglutathione lyase [2], the Ki came to 385 µM.
Consider `CC(C(=O)O)c1cccc(Oc2ccccc2)c1` (configuration not stated) [FENOPROFEN], for which the Ki on Lactoylglutathione lyase [1] came to 400 µM; on Lactoylglutathione lyase [2], 383 µM.
As to `COc1ccc2c(c1)c(CC(=O)O)c(C)n2C(=O)c1ccc(Cl)cc1` [INDOMETHACIN], the Ki at Lactoylglutathione lyase [1] turned out to be 18.1 µM; on Lactoylglutathione lyase [2], 24 µM.
`CC(C(=O)O)c1cccc(C(=O)c2ccccc2)c1` (configuration not stated) [KETOPROFEN]: the Ki at Lactoylglutathione lyase [1] was 414 µM; on Lactoylglutathione lyase [2] it was 843 µM.
The matching figures for `Cc1ccc(C(=O)c2ccc(CC(=O)O)n2C)cc1` [TOLMETIN]: 87.8 µM and 1010 µM.
Regarding `Cc1cc(CC(=O)O)n(C)c1C(=O)c1ccc(Cl)cc1` [ZOMEPIRAC], the inhibitory constant (Ki) on Lactoylglutathione lyase [1] was found to be 107 µM; on Lactoylglutathione lyase [2] it was 335 µM.
